Source: article PMC5431875, “In situ click chemistry generation of cyclooxygenase-2 inhibitors” (Nature Communications, 2017)

Assays:
COX-2 in HCA-7 cells = molecular target: T1, COX-2 in HCA-7 cells (Homo sapiens, UniProt P35354); experiment: Cellular COX-2 inhibitory activity (PGE2 ELISA) in HCA-7 cells; assay type: cell-based; conditions: mean of three determinations, read-out: Cell COX-2 IC50
T1 construct: endogenous in cells; host or cells: HCA-7
T1 sequence (P35354 18-604): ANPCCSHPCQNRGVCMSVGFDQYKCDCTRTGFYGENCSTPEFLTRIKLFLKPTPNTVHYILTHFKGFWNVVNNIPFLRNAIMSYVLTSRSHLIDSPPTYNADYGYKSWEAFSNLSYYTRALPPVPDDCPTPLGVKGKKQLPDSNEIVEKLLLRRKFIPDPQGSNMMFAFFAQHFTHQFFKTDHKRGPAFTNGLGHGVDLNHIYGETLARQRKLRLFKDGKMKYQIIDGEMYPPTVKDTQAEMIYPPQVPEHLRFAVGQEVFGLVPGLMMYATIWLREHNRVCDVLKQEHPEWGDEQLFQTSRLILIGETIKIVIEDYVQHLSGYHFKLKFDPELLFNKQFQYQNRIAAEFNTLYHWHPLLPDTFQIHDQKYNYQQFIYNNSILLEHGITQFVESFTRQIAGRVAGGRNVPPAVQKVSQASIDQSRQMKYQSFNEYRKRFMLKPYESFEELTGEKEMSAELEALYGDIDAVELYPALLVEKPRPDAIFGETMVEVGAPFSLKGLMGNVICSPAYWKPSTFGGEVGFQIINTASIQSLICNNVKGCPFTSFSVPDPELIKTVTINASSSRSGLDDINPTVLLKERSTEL
Description: Based on the in vitro COX-2 inhibitory data, seventeen compounds (Table 2) were selected and further evaluated for their cellular COX-2 inhibitory activity in COX-2 expressing colorectal cancer cell line HCA-7. […]
HCA-7 cells (colorectal cancer cell line, COX-2 expression is confirmed with immunoblotting). The HCA-7 cells were cultured in T75 flasks using DMEM/F12 (1:1) medium supplemented with 10% (v/v) fetal bovine […]
were washed three times for 5 min with 1 ml PBS. Cells were negatively tested for mycoplasma contamination either by the vendor or in house. […]
vehicle (solvent) at concentration range of 10−9 M to 10−3 M. After 30 min incubation the reaction was stopped on ice and supernatants were taken and COX-2 mediated production of PGE2 was immediately determined […]
concentration is quantified by following manufacturer assay procedure. All experiments were done three times and ±s.e.m. were calculated.
The PRISM5 software was used to calculate IC50 values.

pure human COX-2 protein = molecular target: T2, pure human COX-2 protein (Homo sapiens, UniProt P35354); experiment: Isothermal titration calorimetry; assay type: binding; conditions: ITC
T2 sequence (P35354 18-604): T1 sequence (P35354 18-604)
Description: The thermodynamics of the precursor 5-azido-pyrazole (14) binding with pure human COX-2 protein studied with a high sensitivity ITC instrument (VP-ITC, MicroCal). All titrations were performed by following VP-ITC general procedure described in manual. Protein (20 µM) and ligand (200 µM) solution were prepared in PBS buffer, pH 7.4. Prior to each ITC run, all solutions were filtered using membrane filters (pore size 0.45 μm) and thoroughly stirred and degassed using Thermovac accessory for 20 min to remove any air bubbles at 25 °C. In a typical experiment, aliquots (6 µl) of ligand solution (prepared at 10 times the COX-2 protein concentration) were injected with a computer-controlled stirrer-syringe into a reaction cell containing COX-2 protein. Titrations were carried out with a stirring speed of 400 rpm and 240 s intervals between injections. All experiments were conducted at 25 °C. Control experiments, including titration of the ligand into buffer alone or COX-2 protein into buffer alone, were carried to determine the heat due to dilution and subtracting during the original experiment. Calorimetric data analysis was performed with ORIGIN software provided by MicroCal. All results, including the binding constant (K a), stoichiometry of binding (N), and thermodynamics of binding (ΔH and TΔS) were determined by fitting the experimental binding isotherms.

Stability in human serum = assay type: in vitro ADME; conditions: 37 °C, up to 30 h
Description: Stock solutions of compounds 5, 14, 18 and 21 (10 mM) were prepared in DMSO for molecular biology. A Solution of each compound (10 mM) was added to freshly thaw human serum (from human male AB plasma, USA origin, sterile-filtered, Sigma– Aldrich) at 37 °C; the final concentration of the compound was 100 µM. The resulting solution was incubated at 37 °C and at various time intervals (0 to 30 h) 200 µL reaction mixture samples was taken and added to 200 µL of acetonitrile containing 0.1% trifluoroacetic acid in order to deproteinize the proteins. Into each sample mixture, 10 μL of an internal standard solution (2 mM solution in methanol) was added. Sample mixture was sonicated, vortexed and then centrifuged for 15 min. at 2150 × g. The clear supernatant was transferred into the fresh tube for LCMS analysis, with a similar method described for the in situ click LC-MS studies. […]

Stability in rat serum = assay type: in vitro ADME; conditions: 37 °C, up to 30 h
recombinant human COX-2 = molecular target: T3, recombinant human COX-2 (Homo sapiens, UniProt P35354); experiment: COX inhibitor assay (Cayman 700100), COX-2
T3 sequence (P35354 18-604): T1 sequence (P35354 18-604)
Description: (§1) Each compound was assayed in concentration range of 10^−9 M to 10^−3 M, in triplicate. PRISM5 software was used to calculate IC50 values.

ovine COX-1 = molecular target: T4, ovine COX-1 (Ovis aries, UniProt P05979); experiment: COX inhibitor assay (Cayman 700100), COX-1
T4 sequence (P05979 25-600): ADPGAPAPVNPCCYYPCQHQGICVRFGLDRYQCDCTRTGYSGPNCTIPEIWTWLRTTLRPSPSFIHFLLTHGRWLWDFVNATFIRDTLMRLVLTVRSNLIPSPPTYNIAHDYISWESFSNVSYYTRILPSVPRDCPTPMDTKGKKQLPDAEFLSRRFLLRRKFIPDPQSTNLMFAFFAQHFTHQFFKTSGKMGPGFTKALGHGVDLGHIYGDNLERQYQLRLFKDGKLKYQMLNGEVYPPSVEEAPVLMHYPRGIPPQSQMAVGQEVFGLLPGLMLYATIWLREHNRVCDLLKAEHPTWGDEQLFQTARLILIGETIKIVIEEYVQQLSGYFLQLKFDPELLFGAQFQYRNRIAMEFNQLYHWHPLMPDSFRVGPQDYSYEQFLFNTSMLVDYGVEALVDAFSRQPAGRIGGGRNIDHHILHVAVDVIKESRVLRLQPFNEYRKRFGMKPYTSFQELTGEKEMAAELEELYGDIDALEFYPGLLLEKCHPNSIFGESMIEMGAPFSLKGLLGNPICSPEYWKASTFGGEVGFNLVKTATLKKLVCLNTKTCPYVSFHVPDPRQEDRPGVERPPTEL
Description: as §1

IC50 (COX-2 in HCA-7 cells): 10 µM
Enthalpy change, ΔH (pure human COX-2 protein; 298.15 K): -8.248 kcal/mol
Entropy change, TΔS (pure human COX-2 protein; 298.15 K): 0.404 kcal/mol
Free energy change, ΔG (pure human COX-2 protein; 298.15 K): -8.652 kcal/mol
Binding stoichiometry, N (pure human COX-2 protein; PBS pH 7.4, 25 °C): 1.02 ± 0.0259
Stability in human serum (Stability in human serum): no significant degradation
Stability in rat serum (Stability in rat serum): no significant degradation
melting point: 131 to 133 °C
IC50 (recombinant human COX-2): 4.4 µM
COX-2 SI (selectivity index) (recombinant human COX-2; (COX-1 IC50)/(COX-2 IC50)): >22.7
IC50 (ovine COX-1): > 100 µM
SMILES: Cc1cc(N=[N+]=[N-])n(-c2ccc(S(C)(=O)=O)cc2)n1 [Compound 14, 5-azido-1-(4-methanesulfonyl-phenyl)-3-methyl-1H-pyrazole]
